Measurements from ChEMBL document CHEMBL1150577, “Inhibition of glucose and dehydroascorbic acid uptakes by resveratrol in human transformed myelocytic cells” (J Nat Prod, 2001).
Active and inactive are the calls of the source. The rule behind the calls is not given here.

Assays:
[1] = system: HL-60; assay: Inhibition of 2-[1,2-3H(N)]deoxy-D-glucose uptake in human HL60 cells by scintillation spectrometry in presence of sodium-free buffer; format: functional, cell-based
[2] = system: HL-60; assay: Inhibition of [14C]dehydroascorbic acid uptake in human HL60 cells by scintillation spectrometry in presence of sodium-free buffer; format: functional, cell-based
[3] = biological target: T1, Solute carrier family 2, facilitated glucose transporter member 3 (Homo sapiens) (UniProt P11169); assay: Blockade of human Glut3 expressed in CHO cells assessed as inhibition of 2-[1,2-3H(N)]deoxy-D-glucose uptake by scintillation spectrometry; format: cell-based
T1 sequence (whole entry): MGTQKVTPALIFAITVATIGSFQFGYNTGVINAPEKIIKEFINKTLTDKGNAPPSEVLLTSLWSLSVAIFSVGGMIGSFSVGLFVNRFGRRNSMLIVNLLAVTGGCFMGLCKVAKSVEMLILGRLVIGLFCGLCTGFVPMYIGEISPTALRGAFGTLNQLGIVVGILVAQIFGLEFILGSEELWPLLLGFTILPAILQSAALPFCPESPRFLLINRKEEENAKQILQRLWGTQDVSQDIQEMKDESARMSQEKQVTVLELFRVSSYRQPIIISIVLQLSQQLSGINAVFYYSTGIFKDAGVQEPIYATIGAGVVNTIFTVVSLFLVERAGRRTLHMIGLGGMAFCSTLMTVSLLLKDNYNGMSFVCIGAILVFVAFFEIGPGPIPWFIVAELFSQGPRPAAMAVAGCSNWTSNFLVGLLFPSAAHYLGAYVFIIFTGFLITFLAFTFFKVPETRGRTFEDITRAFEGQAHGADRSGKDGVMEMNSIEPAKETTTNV

[4] = system: HL-60; assay: Inhibition of [14C]dehydroascorbic acid uptake in human HL60 cells by scintillation spectrometry in presence of buffer containing NaCl and Na2HPO4; format: functional, cell-based
[5] = system: HL-60; assay: Inhibition of 2-[1,2-3H(N)]deoxy-D-glucose uptake in human HL60 cells at >100 uM by scintillation spectrometry in presence of sodium-free buffer; format: functional
[6] = biological target: T2, Solute carrier family 2, facilitated glucose transporter member 1 (Rattus norvegicus) (UniProt P11167); assay: Blockade of rat Glut1 expressed in CHO cells assessed as inhibition of [14C]dehydroascorbic acid uptake by scintillation spectrometry; format: cell-based
T2 sequence (whole entry): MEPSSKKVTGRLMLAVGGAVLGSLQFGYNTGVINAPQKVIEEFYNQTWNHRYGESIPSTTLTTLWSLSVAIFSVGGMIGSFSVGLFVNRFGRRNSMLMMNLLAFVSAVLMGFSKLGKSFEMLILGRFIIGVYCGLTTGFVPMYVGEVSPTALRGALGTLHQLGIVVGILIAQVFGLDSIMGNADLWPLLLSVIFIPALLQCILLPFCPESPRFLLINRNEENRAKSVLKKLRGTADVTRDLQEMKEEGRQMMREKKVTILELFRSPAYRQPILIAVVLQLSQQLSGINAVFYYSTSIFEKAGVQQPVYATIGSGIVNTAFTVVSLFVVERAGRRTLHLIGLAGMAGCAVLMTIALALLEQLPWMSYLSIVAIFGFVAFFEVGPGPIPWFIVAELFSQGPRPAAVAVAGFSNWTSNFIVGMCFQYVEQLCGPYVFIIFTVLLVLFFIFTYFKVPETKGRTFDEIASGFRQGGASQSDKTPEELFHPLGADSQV

[7] = system: HL-60; assay: Inhibition of 2-[1,2-3H(N)]deoxy-D-glucose uptake in human HL60 cells by Michaelis-Menten plot; format: functional, cell-based
[8] = biological target: T2, Solute carrier family 2, facilitated glucose transporter member 1 (Rattus norvegicus); assay: Blockade of rat Glut1 expressed in CHO cells assessed as inhibition of 2-[1,2-3H(N)]deoxy-D-glucose uptake by scintillation spectrometry; format: cell-based
[9] = system: U-937; assay: Inhibition of 2-[1,2-3H(N)]deoxy-D-glucose uptake in human U937 cells at >500 uM by scintillation spectrometry in presence of buffer containing NaCl and Na2HPO4; format: functional
[10] = system: U-937; assay: Inhibition of 2-[1,2-3H(N)]deoxy-D-glucose uptake in human U937 cells at 73 uM by scintillation spectrometry in presence of buffer containing NaCl and Na2HPO4; format: functional
[11] = system: HL-60; assay: Inhibition of 2-[1,2-3H(N)]deoxy-D-glucose uptake in human HL60 cells at 75 uM by scintillation spectrometry in presence of buffer containing NaCl and Na2HPO4; format: functional
[12] = system: U-937; assay: Inhibition of [14C]dehydroascorbic acid uptake in human U937 cells at 38 uM by scintillation spectrometry in presence of buffer containing NaCl and Na2HPO4; format: functional
[13] = system: HL-60; assay: Inhibition of 2-[1,2-3H(N)]deoxy-D-glucose uptake in human HL60 cells at >500 uM by scintillation spectrometry in presence of buffer containing NaCl and Na2HPO4; format: functional
[14] = system: U-937; assay: Inhibition of 2-[1,2-3H(N)]deoxy-D-glucose uptake in human U937 cells by Michaelis-Menten plot; format: functional, cell-based
[15] = system: U-937; assay: Inhibition of [14C]dehydroascorbic acid uptake in human U937 cells by scintillation spectrometry in presence of buffer containing NaCl and Na2HPO4; format: functional, cell-based
[16] = system: HL-60; assay: Inhibition of [14C]dehydroascorbic acid uptake in human HL60 cells at 32 uM by scintillation spectrometry in presence of buffer containing NaCl and Na2HPO4; format: functional
[17] = system: U-937; assay: Inhibition of [14C]dehydroascorbic acid uptake in human U937 cells by scintillation spectrometry in presence of sodium-free buffer; format: functional, cell-based
[18] = system: U-937; assay: Inhibition of 2-[1,2-3H(N)]deoxy-D-glucose uptake in human U937 cells by scintillation spectrometry in presence of sodium-free buffer; format: functional, cell-based
[19] = system: U-937; assay: Inhibition of [14C]dehydroascorbic acid uptake in human U937 cells by Michaelis-Menten plot; format: functional, cell-based
[20] = system: U-937; assay: Inhibition of 2-[1,2-3H(N)]deoxy-D-glucose uptake in human U937 cells at >100 uM by scintillation spectrometry in presence of sodium-free buffer; format: functional
[21] = biological target: T1, Solute carrier family 2, facilitated glucose transporter member 3 (Homo sapiens); assay: Blockade of human Glut3 expressed in CHO cells assessed as inhibition of [14C]dehydroascorbic acid uptake by scintillation spectrometry; format: cell-based

For `Oc1ccc(/C=C/c2cc(O)cc(O)c2)cc1` [RESVERATROL], the Activity [1] was “Active”, the Activity [2] was “Active” and the Activity [3] was “Active”. The Activity [4] was “Dose-dependent effect”, the “inhibition (INH)” value [5] was 10% and the Activity [6] was “Active”. For the same compound, the Ki [7] was 85 µM, the Activity [8] was “Active” and the “inhibition (INH)” value [9] was 20%. The inhibition at 73 µM [10] was 50%, the inhibition at 75 µM [11] was 50% and the inhibition at 38 µM [12] was 50%. For the same compound, the “inhibition (INH)” value [13] was 20%, the Ki [14] was 89 µM and the Activity [15] was “Dose-dependent effect”. For the same compound, the inhibition at 32 µM [16] was 50%, the Activity [17] was “Active” and the Activity [18] was “Active”. For the same compound, the Ki [19] was 35 µM, the “inhibition (INH)” value [20] was 10% and the Activity [21] was “Active”.
